Assays:
Assay type in all cases: cell-based, HIV-1
[1] = tested on: NL4(538/P24-AG); assay: Viral isolate resistance assay per Markowitz et al., NL4(538/P24-AG); conditions: Human immunodeficiency virus 1; Table 10; NL4(P22-538) selected against Example 12, 24 passages
From the text: (§1) RF represents the HIV-1 strain HIV-LRF and RFR represents a mixture of resistant strains obtained by selection of RF against the compound of Example 1. RFR comprises a mixture of viral strains having protease genotypes of G48V (14/40 clones); G48V, V82A (18/40 clones); G48V, L90S (2/40 clones); G48V, 154T, V82A (1/40 clones); G48M (1/40 clones); G48V, Q61H (1/40 clones); V13I, G48V (1/40 clones); G48V, F53L, V82A (1/40 clones); and G48V, V82A, C95Y (1/40 clones). RFR2 represents a mixture of resistant strains obtained by cloning RFR by three rounds of growth at limiting dilution. RFR2 comprises a mixture of viral strains having protease genotypes of G48V, V82A (13/15 clones); G17E, G48V, V82A (1/15 clones); and G48V, V82A, N37D, N88D (1/15 clones). RFRR represents a mixture of resistant strains obtained by selection of RF against the compounds of Examples 1 and 2 and then cloning by three rounds of growth at limiting dilution. RFRR comprises a mixture of viral strains having protease genotypes of G48V, 154T, L63P, V82A (7/9 clones); G48V, 154T, L63P, V82A, N88S (1/9 clones); and G48V, 154T, L63P, G73M, V82A (1/9 clones). SF162 represents the HIV-1 strain SF-162 and SF162R represents a mixture of resistant strains obtained by selection of SF162 against the compound of Example 1. SF162R comprises a mixture of viral strains having protease genotypes of M461, F53L, L63P, A71V, N88D (2/3 clones); and M46I, F53L, L63P, A71V, N88D, Q92R (1/3 clones). 89-959 represents the HIV-1 strain 89-959 and 89-959R represents a mixture of resistant strains obtained by selection of 89-959 against the compound of Example 2. 89-959R comprises a mixture of viral strains having protease genotypes of N88S (4/5 clones); and D25N, T26A, D30N, D37N, R41K, G73D, R87K, N88S (1/4 clones). NL4 represents the HIV-1 strain HIV-1NL4-3. NL4(G48V) represents a strain having a synthetically generated site-directed mutation in the protease from glycine to valine at amino acid position number 48. NL4(I84V) represents a strain having a synthetically generated site-directed mutation in the protease from isoleucine to valine at amino acid position number 84. NL4(R8Q,M46I) represents a strain having synthetically generated site-directed mutations in the protease from arginine to glutamine at amino acid position number 8 and methionine to isoleucine at amino acid position number 46. NL4(P22-538) represents a mixture of resistant strains obtained by selection of HIV-1NL4-3 against the compound of Example 10 after 22 passages comprising protease genotypes M46I, L63P, A71V, V82F, I84V (4/10); M46I, L63P, V82F, I84V (3/10); and M46I, A71V, V82F, I84V (3/10). NL4(P37-538) represents resistant strains obtained by selection of HIV-1NL4-3 against the compound of Example 10 after 37 passages comprising protease genotype M46I, L63P, A71V, 184A. NL4(538/524) represents resistant strains obtained by selection of NL4(P22-538) against the compound of Example 5 after 24 passages comprising protease genotype M46I, L63P, A71V, 184A. NL4(538/P7-AG) represents a mixture of resistant strains obtained by selection of NL4(P22-538) against the compound of Example 12 after 7 passages comprising protease genotypes M46I, L63P, A71V, 184A; and V321, V82I. NL4(538/P24-AG) represents resistant strains obtained by selection of NL4(P22-538) against the compound of Example 12 after 24 passages comprising protease genotype M46I, L63P, A71V, 184A. […]

[2] = tested on: NL4(I84V); assay: Viral isolate resistance assay per Markowitz et al., NL4(I84V); conditions: Human immunodeficiency virus 1, Table 7
From the text: (§2) RF represents the HIV-1 strain HIV-LRF and RFR represents a mixture of resistant strains obtained by selection of RF against the compound of Example 1. […] RFR2 represents a mixture of resistant strains obtained by cloning RFR by three rounds of growth at limiting dilution. […] RFRR represents a mixture of resistant strains obtained by selection of RF against the compounds of Examples 1 and 2 and then cloning by three rounds of growth at limiting dilution. […] SF162 represents the HIV-1 strain SF-162 and SF162R represents a mixture of resistant strains obtained by selection of SF162 against the compound of Example 1. […] 89-959 represents the HIV-1 strain 89-959 and 89-959R represents a mixture of resistant strains obtained by selection of 89-959 against the compound of Example 2. […] NL4 represents the HIV-1 strain HIV-1NL4-3. NL4(G48V) represents a strain having a synthetically generated site-directed mutation in the protease from glycine to valine at amino acid position number 48. NL4(I84V) represents a strain having a synthetically generated site-directed mutation in the protease from isoleucine to valine at amino acid position number 84. NL4(R8Q,M46I) represents a strain having synthetically generated site-directed mutations in the protease from arginine to glutamine at amino acid position number 8 and methionine to isoleucine at amino acid position number 46.

[3] = tested on: NL4(538/P7-AG); assay: Viral isolate resistance assay per Markowitz et al., NL4(538/P7-AG); conditions: Human immunodeficiency virus 1; Table 10; NL4(P22-538) selected against Example 12, 7 passages
From the text: as §1

[4] = tested on: NL4(538/524); assay: Viral isolate resistance assay per Markowitz et al., NL4(538/524); conditions: Human immunodeficiency virus 1; Table 10; NL4(P22-538) selected against Example 5, 24 passages
From the text: as §1

[5] = tested on: NL4(G48V); assay: Viral isolate resistance assay per Markowitz et al., NL4(G48V); conditions: Human immunodeficiency virus 1, Table 7
From the text: as §2

[6] = tested on: NL4(P37-538); assay: Viral isolate resistance assay per Markowitz et al., NL4(P37-538); conditions: Human immunodeficiency virus 1; Table 9; selected against Example 10, 37 passages; read-out: Virus Isolate (EC50 nM) NL4(P37-538)
From the text: RF represents the HIV-1 strain HIV-LRF and RFR represents a mixture of resistant strains obtained by selection of RF against the compound of Example 1. RFR comprises a mixture of viral strains having protease genotypes of G48V (14/40 clones); G48V, V82A (18/40 clones); G48V, L90S (2/40 clones); G48V, 154T, V82A (1/40 clones); G48M (1/40 clones); G48V, Q61H (1/40 clones); V13I, G48V (1/40 clones); G48V, F53L, V82A (1/40 clones); and G48V, V82A, C95Y (1/40 clones). RFR2 represents a mixture of resistant strains obtained by cloning RFR by three rounds of growth at limiting dilution. RFR2 comprises a mixture of viral strains having protease genotypes of G48V, V82A (13/15 clones); G17E, G48V, V82A (1/15 clones); and G48V, V82A, N37D, N88D (1/15 clones). RFRR represents a mixture of resistant strains obtained by selection of RF against the compounds of Examples 1 and 2 and then cloning by three rounds of growth at limiting dilution. RFRR comprises a mixture of viral strains having protease genotypes of G48V, 154T, L63P, V82A (7/9 clones); G48V, 154T, L63P, V82A, N88S (1/9 clones); and G48V, 154T, L63P, G73M, V82A (1/9 clones). SF162 represents the HIV-1 strain SF-162 and SF162R represents a mixture of resistant strains obtained by selection of SF162 against the compound of Example 1. SF162R comprises a mixture of viral strains having protease genotypes of M461, F53L, L63P, A71V, N88D (2/3 clones); and M46I, F53L, L63P, A71V, N88D, Q92R (1/3 clones). 89-959 represents the HIV-1 strain 89-959 and 89-959R represents a mixture of resistant strains obtained by selection of 89-959 against the compound of Example 2. 89-959R comprises a mixture of viral strains having protease genotypes of N88S (4/5 clones); and D25N, T26A, D30N, D37N, R41K, G73D, R87K, N88S (1/4 clones). NL4 represents the HIV-1 strain HIV-1NL4-3. NL4(G48V) represents a strain having a synthetically generated site-directed mutation in the protease from glycine to valine at amino acid position number 48. NL4(I84V) represents a strain having a synthetically generated site-directed mutation in the protease from isoleucine to valine at amino acid position number 84. NL4(R8Q,M46I) represents a strain having synthetically generated site-directed mutations in the protease from arginine to glutamine at amino acid position number 8 and methionine to isoleucine at amino acid position number 46. NL4(P22-538) represents a mixture of resistant strains obtained by selection of HIV-1NL4-3 against the compound of Example 10 after 22 passages comprising protease genotypes M46I, L63P, A71V, V82F, I84V (4/10); M46I, L63P, V82F, I84V (3/10); and M46I, A71V, V82F, I84V (3/10). NL4(P37-538) represents resistant strains obtained by selection of HIV-1NL4-3 against the compound of Example 10 after 37 passages comprising protease genotype M46I, L63P, A71V, 184A. NL4(538/524) represents resistant strains obtained by selection of NL4(P22-538) against the compound of Example 5 after 24 passages comprising protease genotype M46I, L63P, A71V, 184A. NL4(538/P7-AG) represents a mixture of resistant strains obtained by selection of NL4(P22-538) against the compound of Example 12 after 7 passages comprising protease genotypes M46I, L63P, A71V, 184A; and V321, V82I. NL4(538/P24-AG) represents resistant strains obtained by selection of NL4(P22-538) against the compound of Example 12 after 24 passages comprising protease genotype M46I, L63P, A71V, 184A. NLA(P19-003) represents resistant strains obtained by selection of HIV-1^NL4-3 against the compound of Example 9 after 19 passages comprising protease genotype R8K, M46I. NL4(P34-003) represents resistant strains obtained by selection of HIV-1^NL4-3 against the compound of Example 9 after 34 passages comprising protease genotype R8K, M46I, L63P, A71V, L90M.
The viral isolate resistance results summarized in Tables 7-11 were generated according to the assay procedures described by Markowitz et al., Journal of Virology, vol. […]

| Compound | EC50 [1] | EC90 [2] | EC50 [3] | EC50 [4] | EC90 [5] | EC50 [6] |
| --- | --- | --- | --- | --- | --- | --- |
| CC(C)(C)NC(=O)[C@@H]1CC2CCCC[C@@H]2CN1C[C@@H](O)[C@H](Cc1ccccc1)NC(=O)[C@H](CC(N)=O)NC(=O)c1ccc2ccccc2n1 (stereo in doubt) [Example 6, N-tert-Butyl decahydro-2-[2(R)-hydroxy-4-phenyl-3(S)-[[N-(2-quinolylcarbonyl)-L-asparaginyl]amino]butyl]-(4aR,8aS)-isoquinoline-3(S)-carboxamide] | 2400 nM | 90 nM | 2400 nM | 2400 nM | 150 nM | 2400 nM |
| CC(C)(C)NC(=O)[C@@H]1CN(Cc2cccnc2)CCN1C[C@@H](O)C[C@@H](Cc1ccccc1)C(=O)N[C@H]1c2ccccc2C[C@H]1O [Example 5, N-(2(R)-Hydroxy-1(S)-indanyl)-2(R)-phenylmethyl-4(S)-hydroxy-5-(1-(4-(3-pyridylmethyl)-2(S)-N′-(t-butylcarboxamido)-piperazinyl))-pentaneamide] | 6400 nM | 640 nM | 6400 nM | 6400 nM | 160 nM | 6400 nM |
